The record followed here is PubChem BioAssay AID248 (DTP/NCI, 2004).

Each structure is given as a SMILES string. Values joined by “and” are separate entries in the source; they are usually repeats but may differ in a detail not shown here. Equal entries are not always repeated. Toxic doses and inconclusive results are not listed.

The assay has as its system L1210 leukemia ip in BDF1 mice, survival T/C. Briefly: NCI In Vivo Anticancer Drug Screen. Data for tumor model L1210 Leukemia (intraperitoneal) in B6D2F1 (BDF1) mice. As to conditions: endpoint: mean survival time, higher = longer survival. The method in brief: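 In this screen, tumor-bearing mice given compound are compared to those given vehicle, and their survival values are reported as a treated-to-control quotient.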

The mark [1] stands for this setting: dose: 12.5 mg/kg/injection, schedule: Q04DX003 (ip), vehicle: Klucel (hydroxypropylcellulose) (HPC).
Where [2] appears, read: dose: 25.0 mg/kg/injection, schedule: Q04DX003 (ip), vehicle: Klucel (hydroxypropylcellulose) (HPC).
The mark [3] stands for this setting: dose: 50.0 mg/kg/injection, schedule: Q04DX003 (ip), vehicle: Klucel (hydroxypropylcellulose) (HPC).
[4] abbreviates: dose: 100.0 mg/kg/injection, schedule: Q04DX003 (ip), vehicle: Klucel (hydroxypropylcellulose) (HPC).
[5] abbreviates: dose: 200.0 mg/kg/injection, schedule: Q04DX003 (ip), vehicle: Klucel (hydroxypropylcellulose) (HPC).
Setting [6] is: dose: 400.0 mg/kg/injection, schedule: Q04DX003 (ip), vehicle: Klucel (hydroxypropylcellulose) (HPC).
The mark [7] stands for this setting: dose: 12.5 mg/kg/injection, schedule: Q01DX009 (ip), vehicle: Klucel (hydroxypropylcellulose) (HPC).
Where [8] appears, read: dose: 25.0 mg/kg/injection, schedule: Q01DX009 (ip), vehicle: Klucel (hydroxypropylcellulose) (HPC).
Setting [9] is: dose: 100.0 mg/kg/injection, schedule: Q04DX002 (ip), vehicle: saline with Tween-80.
The mark [10] stands for this setting: dose: 100.0 mg/kg/injection, schedule: Q04DX003 (ip), vehicle: saline with Tween-80.
The mark [11] stands for this setting: dose: 200.0 mg/kg/injection, schedule: Q04DX003 (ip), vehicle: saline with Tween-80.
[12] abbreviates: dose: 400.0 mg/kg/injection, schedule: Q04DX003 (ip), vehicle: saline with Tween-80.
Setting [13] is: dose: 100.0 mg/kg/injection, schedule: Q01DX009 (ip), vehicle: Klucel (hydroxypropylcellulose) (HPC).
The mark [14] stands for this setting: dose: 100.0 mg/kg/injection, schedule: Q04DX003 (ip), vehicle: saline.
[15] abbreviates: dose: 200.0 mg/kg/injection, schedule: Q01DX009 (ip), vehicle: Klucel (hydroxypropylcellulose) (HPC).
The mark [16] stands for this setting: dose: 200.0 mg/kg/injection, schedule: Q04DX003 (ip), vehicle: saline.
Setting [17] is: dose: 400.0 mg/kg/injection, schedule: Q01DX009 (ip), vehicle: Klucel (hydroxypropylcellulose) (HPC).
The mark [18] stands for this setting: dose: 400.0 mg/kg/injection, schedule: Q04DX003 (ip), vehicle: saline.
Where [19] appears, read: dose: 100.0 mg/kg/injection, schedule: Q04DX002 (ip), vehicle: Klucel (hydroxypropylcellulose) (HPC).
[20] abbreviates: dose: 200.0 mg/kg/injection, schedule: Q04DX002 (ip), vehicle: Klucel (hydroxypropylcellulose) (HPC).
Setting [21] is: dose: 400.0 mg/kg/injection, schedule: Q04DX002 (ip), vehicle: Klucel (hydroxypropylcellulose) (HPC).
Setting [22] is: dose: 50.0 mg/kg/injection, schedule: Q01DX009 (ip), vehicle: Klucel (hydroxypropylcellulose) (HPC).

In the case of `CCCNC(C)(C)C(SSSC(c1cccs1)C(C)(C)NCCC)c1cccs1` (stereo unspecified), the T/C was 101 % of control (dose: 12.5 mg/kg/injection, schedule: Q01DX009 (ip), vehicle: saline); 96 % of control under setting [1]; 95 % of control (dose: 25.0 mg/kg/injection, schedule: Q01DX009 (ip), vehicle: saline); 106 % of control under setting [2]; 92 % of control (dose: 50.0 mg/kg/injection, schedule: Q01DX009 (ip), vehicle: saline); 96 % of control under setting [3]. Moreover, the T/C by setting is: (dose: 75.0 mg/kg/injection, schedule: Q01DX009 (ip), vehicle: Klucel (hydroxypropylcellulose) (HPC)) 98 % of control; (dose: 75.0 mg/kg/injection, schedule: Q01DX009 (ip), vehicle: saline) 88 % of control; (dose: 115.0 mg/kg/injection, schedule: Q01DX009 (ip), vehicle: Klucel (hydroxypropylcellulose) (HPC)) 97 % of control; (dose: 170.0 mg/kg/injection, schedule: Q01DX009 (ip), vehicle: Klucel (hydroxypropylcellulose) (HPC)) 96 % of control; (dose: 170.0 mg/kg/injection, schedule: Q01DX009 (ip), vehicle: saline) 89 % of control.

For the compound `C=CCOC(=O)CCOCC`, the T/C (dose: 55.0 mg/kg/injection, schedule: Q01DX Z (ip), vehicle: methylcellulose (MC)) is 90 % of control; the T/C (dose: 83.0 mg/kg/injection, schedule: Q01DX Z (ip), vehicle: methylcellulose (MC)) was 94 % of control; the T/C (dose: 125.0 mg/kg/injection, schedule: Q01DX Z (ip), vehicle: methylcellulose (MC)) was 90 % of control.

`C=CC(COC(C)=O)N1CC1` (stereo unspecified) (tested in a mixture with another compound): the T/C runs as follows: (dose: 30.0 mg/kg/injection, schedule: Q04DX003 (ip), vehicle: saline) 166 % of control; (dose: 60.0 mg/kg/injection, schedule: Q04DX003 (ip), vehicle: saline) 107 % of control.

`C[C@]12CC[C@@H]3c4ccc(O)cc4CC[C@H]3[C@@H]1C[C@H](O)C2`: the T/C is, setting by setting: (dose: 100.0 mg/kg/injection, schedule: Q01DX001 (sc), vehicle: steriod suspending solution) 98 % of control; (dose: 100.0 mg/kg/injection, schedule: Q04DX003 (sc), vehicle: steriod suspending solution) 96 % of control; (dose: 200.0 mg/kg/injection, schedule: Q01DX001 (sc), vehicle: steriod suspending solution) 102 % of control; (dose: 200.0 mg/kg/injection, schedule: Q04DX003 (sc), vehicle: steriod suspending solution) 104 % of control; (dose: 400.0 mg/kg/injection, schedule: Q01DX001 (sc), vehicle: steriod suspending solution) 105 % of control; (dose: 400.0 mg/kg/injection, schedule: Q04DX003 (sc), vehicle: steriod suspending solution) 94 % of control.

Regarding `c1ccc(Sc2ncnc3nc[nH]c23)nc1`, for the setting “dose: 267.0 mg/kg/injection, schedule: Q01DX001 (ip), vehicle: saline with Tween-80”, the T/C was 110 % of control.

In the case of `CCc1nc(N)nc(N)c1-c1ccc([N+](=O)[O-])cc1O`, the T/C is 92 % of control under setting [4], 93 % of control under setting [5] and 89 % of control under setting [6].

Consider `C[N+]12CCCc3cc(CO)cc(c31)CCC2`, for which the T/C is, setting by setting: under setting [7], 101 % of control; under setting [1], 97 % of control; under setting [8], 105 % of control; under setting [2], 92 % of control; under setting [3], 97 % of control.

Consider `O=S(=O)(O)c1ccc2cc(N=Nc3c(O)ccc4ccccc34)ccc2c1`, for which the T/C runs as follows: (dose: 100.0 mg/kg/injection, schedule: Q04DX003 (ip), vehicle: carboxymethylcellulose (CMC)) 95 % of control; (dose: 200.0 mg/kg/injection, schedule: Q04DX003 (ip), vehicle: carboxymethylcellulose (CMC)) 103 % of control; (dose: 400.0 mg/kg/injection, schedule: Q04DX003 (ip), vehicle: carboxymethylcellulose (CMC)) 95 % of control.

On to `CCCCOP(=O)(OCCCC)N(C)c1ccccc1`, for which the T/C runs as follows: (dose: 25.0 mg/kg/injection, schedule: Q04DX002 (ip), vehicle: saline with Tween-80) 89 % of control; (dose: 50.0 mg/kg/injection, schedule: Q04DX002 (ip), vehicle: saline with Tween-80) 95 % of control; under setting [9], 92 % of control and 93 % of control.

In the case of `CC(=O)Oc1oc(-c2ccccc2)nc1-c1ccccc1`, the T/C is 108 % of control (dose: 100.0 mg/kg/injection, schedule: Q01DX009 (ip), vehicle: saline with Tween-80); 98 % of control under setting [10]; 94 % of control (dose: 200.0 mg/kg/injection, schedule: Q01DX009 (ip), vehicle: saline with Tween-80); 100 % of control under setting [11]; 97 % of control (dose: 400.0 mg/kg/injection, schedule: Q01DX009 (ip), vehicle: saline with Tween-80); 104 % of control under setting [12].

`CCOC(=O)C1OC12CCCCC2` (stereo unspecified): the T/C under setting [13] was 100 % of control; the T/C under setting [14] was 92 % of control; the T/C under setting [15] was 92 % of control; the T/C under setting [16] is 96 % of control; the T/C under setting [17] is 100 % of control; the T/C under setting [18] was 89 % of control.

For `NNC(=O)CNc1cccc(I)c1`, the T/C was 102 % of control under setting [19], 95 % of control under setting [20] and 109 % of control under setting [21].

Consider `Cc1ccc(O)cc1Cl`, for which the T/C runs as follows: (dose: 100.0 mg/kg/injection, schedule: Q01DX009 (ip), vehicle: saline) 104 % of control; under setting [14], 95 % of control; (dose: 200.0 mg/kg/injection, schedule: Q01DX009 (ip), vehicle: saline) 101 % of control; under setting [16], 104 % of control; (dose: 400.0 mg/kg/injection, schedule: Q01DX009 (ip), vehicle: saline) 95 % of control; under setting [18], 96 % of control.

`CN(C)c1ccc(/C=C\c2cc(=O)[nH]c3ccccc23)cc1`: the T/C was 100 % of control under setting [22], 102 % of control under setting [13], 97 % of control under setting [15] and 97 % of control under setting [17].

`[O-][n+]1c2ccccc2nc2cc(Cl)ccc21`: the T/C is, setting by setting: under setting [4], 107 % of control; under setting [5], 100 % of control; under setting [6], 96 % of control.

With `C1SCC12CSC2`, the T/C is, setting by setting: (dose: 6.25 mg/kg/injection, schedule: Q01DX001 (ip), vehicle: saline with Tween-80) 93 % of control; (dose: 12.5 mg/kg/injection, schedule: Q01DX001 (ip), vehicle: saline with Tween-80) 96 % of control; (dose: 25.0 mg/kg/injection, schedule: Q01DX001 (ip), vehicle: saline with Tween-80) 104 % of control.

Take `Nc1nc(N)c2nc(CO)cnc2n1`: the T/C is 98 % of control under setting [7]; 102 % of control under setting [8]; 101 % of control and 105 % of control under setting [22]; 101 % of control under setting [13].

For `COC(=O)C1C=CCC=C1OC` (stereo unspecified), the T/C is 96 % of control under setting [10], 105 % of control under setting [11] and 91 % of control under setting [12].

Turning to `Cc1cc(Cl)c(Cl)cc1NC(=O)c1ccc(Cl)cc1Cl`, the T/C reads like this: under setting [19], 108 % of control; under setting [20], 94 % of control; under setting [21], 108 % of control.

As to `CC(NC(=O)c1ccc(Cl)c(Cl)c1)c1ccc(-c2ccccc2)cc1` (stereo unspecified), the T/C runs as follows: under setting [9], 102 % of control; (dose: 200.0 mg/kg/injection, schedule: Q04DX002 (ip), vehicle: saline with Tween-80) 91 % of control; (dose: 400.0 mg/kg/injection, schedule: Q04DX002 (ip), vehicle: saline with Tween-80) 87 % of control.
